According to US8686041B2, “Inhibition of ornithine aminotransferase for the treatment of proliferative disorders” (Hadasit Medical Research Services & Development, Ltd., priority 2006, dated 2014):

How the values were obtained:
HEP3B = assay: αFP secretion by HCC cell lines with Gabaculine analogue 8; format: cell-based, human; settings: 48 hours
Procedure: (§1) 1×10^5 cells/well of each of Hep3b and HepG2 hepatocellular carcinoma cell lines were plated in triplicate and incubated at 37° C. Gabaculine analogue 8 was added to wells at varying concentrations (0.1 μg/ml, 1 μg/ml, 10 μg/ml and 50 μg/ml). Cells returned to incubator for further incubation of 48 hours. In the fourth day of the experiment, one ml of supernatant from each well was transferred to eppendorf tubes and analyzed for αFP concentration. αFP levels were checked using the Abbott Diagnostic AxSYM system. Encouraged by the in vitro and in vivo results of inhibiting OAT using Gabaculine, the inventors next examined the in vitro effect of a further OAT inhibitor, Gabaculine analogue 8 (LHJ-II-79), on AFP secretion from two different HCC cell lines. Therefore, Hep3b and HepG2 hepatocellular carcinoma cell lines were detached from culture dishes using trypsin-EDTA, re-plated in triplicates in 12 well culture dishes (1×10^5 cells/well) and incubated at 37° C. Gabaculine analogue 8 was added to wells at varying concentrations (0.1 μg/ml, 1 μg/ml, 10 μg/ml and 50 μg/ml). After 48 hours, cell supernatant was analyzed for AFP concentration.

HepG2 = assay: as above; format: cell-based, human; settings: 48 hours
Procedure: as §1

[1] = 0.1-50 μg/ml, effect concentration dependent

Cl.NC1CC(C(=O)O)CC1=C=C(C(F)(F)F)C(F)(F)F (stereo not shown) [analogue 8, 1-carboxy-3-amino-4-bis(trifluoromethyl)vinylidene cyclopentane hydrochloride] was tested, and the “AFP secretion by the cells, in words” value (HEP3B; [1]) was “significant reduction of AFP secretion”, the “AVG results AF” value (HEP3B; EXP. I, 10 ug/ml, 1:5 dil, CONTROL 42.52) was 37.96 ng/mL and the “AVG results AF” value (HEP3B; EXP. I, 50 ug/ml, 1:5 dil, CONTROL 42.52) was 18.52 ng/mL. For the same compound, the “AVG results AF” value (HEP3B; EXP. II, 0.1 ug/ml, 1:5 dil, CONTROL 13.42) was 12.66 ng/mL, the “AVG results AF” value (HEP3B; EXP. II, 1 ug/ml, 1:5 dil, CONTROL 13.42) was 11.92 ng/mL and the “AVG results AF” value (HEP3B; EXP. II, 10 ug/ml, 1:5 dil, CONTROL 13.42) was 9.63 ng/mL. For the same compound, the “AVG results AF” value (HEP3B; EXP. II, 50 ug/ml, 1:5 dil, CONTROL 13.42) was 9.37 ng/mL, the “AVG results AF” value (HEP3B; EXP. III, 10 ug/ml, 1:5 dil, CONTROL 11.39) was 10.97 ng/mL and the “AVG results AF” value (HEP3B; EXP. III, 50 ug/ml, 1:5 dil, CONTROL 11.39) was 6.98 ng/mL. The “AVG results AF” value (HEP3B; EXP. IV, 10 ug/ml, 1:2 dil, CONTROL 18.45) was 13.73 ng/mL, the “AVG results AF” value (HEP3B; EXP. IV, 50 ug/ml, 1:2 dil, CONTROL 18.45) was 11.30 ng/mL and the “AFP secretion by the cells, in words” value (HepG2; [1]) was “significant reduction of AFP secretion”. For the same compound, the “AVG results AF” value (HepG2; EXP. I, 10 ug/ml, 1:100 dil, CONTROL 34.19) was 37.98 ng/mL, the “AVG results AF” value (HepG2; EXP. I, 50 ug/ml, 1:100 dil, CONTROL 34.19) was 23.54 ng/mL and the “AVG results AF” value (HepG2; EXP. II, 0.1 ug/ml, 1:100 dil, CONTROL 11.93) was 11.92 ng/mL. For the same compound, the “AVG results AF” value (HepG2; EXP. II, 1 ug/ml, 1:100 dil, CONTROL 11.93) was 12.85 ng/mL, the “AVG results AF” value (HepG2; EXP. II, 10 ug/ml, 1:100 dil, CONTROL 11.93) was 11.38 ng/mL and the “AVG results AF” value (HepG2; EXP. II, 50 ug/ml, 1:100 dil, CONTROL 11.93) was 8.54 ng/mL. The “AVG results AF” value (HepG2; EXP. III, 10 ug/ml, 1:100 dil, CONTROL 12.07) was 10.67 ng/mL, the “AVG results AF” value (HepG2; EXP. III, 50 ug/ml, 1:100 dil, CONTROL 12.07) was 7.57 ng/mL and the “AVG results AF” value (HepG2; EXP. IV, 10 ug/ml, 1:50 dil, CONTROL 13.32) was 12.74 ng/mL. For the same compound, the “AVG results AF” value (HepG2; EXP. IV, 50 ug/ml, 1:50 dil, CONTROL 13.32) was 8.94 ng/mL.
